Measurements taken from article PMC4492579, “Potent and Selective Triazole-Based Inhibitors of the Hypoxia-Inducible Factor Prolyl-Hydroxylases with Activity in the Murine Brain” (PLoS ONE, 2015).
Where a name gives a salt, the structure may show the parent alone. Read-outs that look alike come from different tables or passages of the source.

Key:
U2OS = test: Quantitative HIF1α MSD immunoassay, U2OS; type: cell-based; details: Homo sapiens, read-out: HIF1α EC50
Experimental: Cells were seeded into 96-well cell culture plates (150 μl culture volume) at approximately 60–70% confluency at least 12 h prior to the compound treatment. Half of the culture medium (75 μl/well) were removed and 75 μl/well of medium containing the desired concentrations of compounds were added into cells for 5 h. The cell medium was then removed and the cells were washed once with phosphate buffered saline (PBS), followed by the addition of lysis buffer (20 mM Tris pH 7.4, 450 mM NaCl, 1 mM EDTA, 1 mM EGTA, 0.5% Triton X-100, 1x complete protease inhibitor cocktail and 100 μM DFO). Plates were then left at 4°C with shaking. […] Plates were washed thrice with Tris Wash Buffer, added with 150 μl/well 2X Read Buffer (R92TC, Meso Scale Discovery) before being read with an MSD Sector S600 plate reader (Meso Scale Discovery). Signals generated were normalized to “lysis buffer-only” controls.
To quantify the cellular efficiency of PHD inhibition, we developed an electrochemiluminescence-based assay for the quantification of HIF1α levels using the Meso Scale Discovery (MSD, http://www.mesoscale.com) technology (HIF1α MSD assay), which is based on the capture and detection of HIF1α protein using two specific HIF1α antibodies. […]

FBXL11 (KDM2A) = target: T1, FBXL11 (KDM2A) (Homo sapiens, UniProt Q9Y2K7); test: KDM AlphaScreen assay, FBXL11
T1 sequence (Q9Y2K7 1-1162): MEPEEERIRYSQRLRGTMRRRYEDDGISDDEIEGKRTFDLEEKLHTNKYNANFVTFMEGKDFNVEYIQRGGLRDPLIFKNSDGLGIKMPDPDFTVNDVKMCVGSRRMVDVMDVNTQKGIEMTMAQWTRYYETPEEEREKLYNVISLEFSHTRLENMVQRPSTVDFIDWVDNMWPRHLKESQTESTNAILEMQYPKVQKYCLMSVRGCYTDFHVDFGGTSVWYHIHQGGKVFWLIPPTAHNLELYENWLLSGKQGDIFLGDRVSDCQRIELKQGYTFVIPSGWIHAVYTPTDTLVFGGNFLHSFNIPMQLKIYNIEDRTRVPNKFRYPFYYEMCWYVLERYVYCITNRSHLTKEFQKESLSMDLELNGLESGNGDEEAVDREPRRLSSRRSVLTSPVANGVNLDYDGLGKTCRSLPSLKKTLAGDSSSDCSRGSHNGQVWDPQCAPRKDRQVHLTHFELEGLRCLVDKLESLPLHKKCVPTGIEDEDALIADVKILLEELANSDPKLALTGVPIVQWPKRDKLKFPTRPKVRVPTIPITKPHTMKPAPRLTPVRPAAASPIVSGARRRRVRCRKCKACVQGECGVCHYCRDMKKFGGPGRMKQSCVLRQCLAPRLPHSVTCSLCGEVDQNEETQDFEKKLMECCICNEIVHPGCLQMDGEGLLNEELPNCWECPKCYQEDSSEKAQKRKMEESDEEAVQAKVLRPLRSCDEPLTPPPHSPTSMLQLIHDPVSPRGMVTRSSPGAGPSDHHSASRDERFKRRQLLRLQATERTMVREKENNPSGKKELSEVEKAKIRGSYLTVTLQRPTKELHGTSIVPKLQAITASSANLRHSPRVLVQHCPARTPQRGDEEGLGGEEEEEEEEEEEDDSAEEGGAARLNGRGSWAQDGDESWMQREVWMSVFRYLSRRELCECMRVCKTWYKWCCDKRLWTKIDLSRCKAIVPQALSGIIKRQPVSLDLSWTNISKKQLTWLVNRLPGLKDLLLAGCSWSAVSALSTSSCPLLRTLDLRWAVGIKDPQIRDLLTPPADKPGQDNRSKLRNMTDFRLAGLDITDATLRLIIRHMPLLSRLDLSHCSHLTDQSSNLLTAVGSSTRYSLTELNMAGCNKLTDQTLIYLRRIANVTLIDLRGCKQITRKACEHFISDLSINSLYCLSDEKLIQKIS
Experimental: (§1) Inhibition assays for PHD2 (AlphaScreen) [9], the KDMs (AlphaScreen) [17], BBOX [18] and FTO [19] were carried out as previously described. […] IC50 values were calculated using nonlinear regression with normalized dose-response fit using GraphPad Prism 5.

JMJD3 (KDM6B) = JMJD3 (KDM6B) (Homo sapiens, UniProt O15054); test: KDM AlphaScreen assay, JMJD3
Experimental: as §1

JMJD2E (KDM4E) = target: T2, JMJD2E (KDM4E) (Homo sapiens, UniProt B2RXH2); test: KDM AlphaScreen assay, JMJD2E
T2 sequence (B2RXH2 1-506): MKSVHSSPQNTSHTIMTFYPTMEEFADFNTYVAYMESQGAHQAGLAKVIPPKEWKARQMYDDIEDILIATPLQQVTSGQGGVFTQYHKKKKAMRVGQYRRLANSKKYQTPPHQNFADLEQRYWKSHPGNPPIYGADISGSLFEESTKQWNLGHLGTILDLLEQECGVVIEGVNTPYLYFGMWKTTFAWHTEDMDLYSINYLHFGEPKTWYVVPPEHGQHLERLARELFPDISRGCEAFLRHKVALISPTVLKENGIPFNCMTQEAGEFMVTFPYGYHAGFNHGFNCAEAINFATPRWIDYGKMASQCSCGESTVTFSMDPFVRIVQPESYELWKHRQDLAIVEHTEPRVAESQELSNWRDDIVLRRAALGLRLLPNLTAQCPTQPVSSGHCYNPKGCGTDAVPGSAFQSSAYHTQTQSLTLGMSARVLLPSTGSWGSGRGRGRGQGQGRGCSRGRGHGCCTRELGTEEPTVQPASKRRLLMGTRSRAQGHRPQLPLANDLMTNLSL
Experimental: as §1

JARID1C (KDM5C) = JARID1C (KDM5C) (Homo sapiens, UniProt P41229); test: KDM AlphaScreen assay, JARID1C
Sequence of JARID1C (KDM5C) (P41229 whole entry): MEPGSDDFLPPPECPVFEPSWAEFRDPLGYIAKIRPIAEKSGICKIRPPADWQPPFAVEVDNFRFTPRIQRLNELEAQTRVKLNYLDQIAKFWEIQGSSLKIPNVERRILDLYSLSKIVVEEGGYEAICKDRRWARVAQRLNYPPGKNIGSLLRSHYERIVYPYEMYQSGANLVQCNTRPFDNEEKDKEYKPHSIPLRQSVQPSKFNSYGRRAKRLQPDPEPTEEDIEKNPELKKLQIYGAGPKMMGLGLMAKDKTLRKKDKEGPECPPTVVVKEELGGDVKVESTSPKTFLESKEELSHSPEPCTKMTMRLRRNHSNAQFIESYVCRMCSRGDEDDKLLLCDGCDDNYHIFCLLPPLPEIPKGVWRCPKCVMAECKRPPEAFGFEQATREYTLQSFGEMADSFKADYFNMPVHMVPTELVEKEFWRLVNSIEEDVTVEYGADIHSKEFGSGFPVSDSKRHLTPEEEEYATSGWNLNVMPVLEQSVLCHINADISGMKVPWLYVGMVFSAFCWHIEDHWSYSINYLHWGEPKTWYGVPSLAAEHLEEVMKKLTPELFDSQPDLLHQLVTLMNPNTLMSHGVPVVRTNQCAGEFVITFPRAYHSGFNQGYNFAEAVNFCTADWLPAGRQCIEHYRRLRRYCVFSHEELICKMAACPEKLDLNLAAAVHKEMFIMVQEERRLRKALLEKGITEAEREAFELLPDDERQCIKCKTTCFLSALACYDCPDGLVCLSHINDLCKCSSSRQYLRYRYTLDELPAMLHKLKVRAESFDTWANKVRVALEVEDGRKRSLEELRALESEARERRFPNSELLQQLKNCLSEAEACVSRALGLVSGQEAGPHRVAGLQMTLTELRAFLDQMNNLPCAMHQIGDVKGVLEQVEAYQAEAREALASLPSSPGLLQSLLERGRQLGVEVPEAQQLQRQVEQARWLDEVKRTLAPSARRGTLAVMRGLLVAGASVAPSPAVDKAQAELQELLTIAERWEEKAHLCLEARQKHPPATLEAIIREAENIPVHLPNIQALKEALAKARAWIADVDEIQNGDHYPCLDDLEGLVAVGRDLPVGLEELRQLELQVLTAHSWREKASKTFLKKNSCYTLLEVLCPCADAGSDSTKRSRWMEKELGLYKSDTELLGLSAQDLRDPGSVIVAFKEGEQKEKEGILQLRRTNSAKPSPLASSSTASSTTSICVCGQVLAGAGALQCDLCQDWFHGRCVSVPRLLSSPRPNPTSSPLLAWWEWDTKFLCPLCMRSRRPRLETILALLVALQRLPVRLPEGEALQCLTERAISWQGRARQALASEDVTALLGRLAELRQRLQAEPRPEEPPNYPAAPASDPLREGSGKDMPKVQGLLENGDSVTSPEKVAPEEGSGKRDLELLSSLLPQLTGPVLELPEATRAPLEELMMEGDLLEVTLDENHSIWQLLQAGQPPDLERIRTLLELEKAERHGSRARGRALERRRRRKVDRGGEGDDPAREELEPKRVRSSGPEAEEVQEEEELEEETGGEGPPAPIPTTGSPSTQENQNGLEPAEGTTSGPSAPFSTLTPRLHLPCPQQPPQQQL
Experimental: as §1

Sequence of JMJD3 (KDM6B) (O15054 whole entry): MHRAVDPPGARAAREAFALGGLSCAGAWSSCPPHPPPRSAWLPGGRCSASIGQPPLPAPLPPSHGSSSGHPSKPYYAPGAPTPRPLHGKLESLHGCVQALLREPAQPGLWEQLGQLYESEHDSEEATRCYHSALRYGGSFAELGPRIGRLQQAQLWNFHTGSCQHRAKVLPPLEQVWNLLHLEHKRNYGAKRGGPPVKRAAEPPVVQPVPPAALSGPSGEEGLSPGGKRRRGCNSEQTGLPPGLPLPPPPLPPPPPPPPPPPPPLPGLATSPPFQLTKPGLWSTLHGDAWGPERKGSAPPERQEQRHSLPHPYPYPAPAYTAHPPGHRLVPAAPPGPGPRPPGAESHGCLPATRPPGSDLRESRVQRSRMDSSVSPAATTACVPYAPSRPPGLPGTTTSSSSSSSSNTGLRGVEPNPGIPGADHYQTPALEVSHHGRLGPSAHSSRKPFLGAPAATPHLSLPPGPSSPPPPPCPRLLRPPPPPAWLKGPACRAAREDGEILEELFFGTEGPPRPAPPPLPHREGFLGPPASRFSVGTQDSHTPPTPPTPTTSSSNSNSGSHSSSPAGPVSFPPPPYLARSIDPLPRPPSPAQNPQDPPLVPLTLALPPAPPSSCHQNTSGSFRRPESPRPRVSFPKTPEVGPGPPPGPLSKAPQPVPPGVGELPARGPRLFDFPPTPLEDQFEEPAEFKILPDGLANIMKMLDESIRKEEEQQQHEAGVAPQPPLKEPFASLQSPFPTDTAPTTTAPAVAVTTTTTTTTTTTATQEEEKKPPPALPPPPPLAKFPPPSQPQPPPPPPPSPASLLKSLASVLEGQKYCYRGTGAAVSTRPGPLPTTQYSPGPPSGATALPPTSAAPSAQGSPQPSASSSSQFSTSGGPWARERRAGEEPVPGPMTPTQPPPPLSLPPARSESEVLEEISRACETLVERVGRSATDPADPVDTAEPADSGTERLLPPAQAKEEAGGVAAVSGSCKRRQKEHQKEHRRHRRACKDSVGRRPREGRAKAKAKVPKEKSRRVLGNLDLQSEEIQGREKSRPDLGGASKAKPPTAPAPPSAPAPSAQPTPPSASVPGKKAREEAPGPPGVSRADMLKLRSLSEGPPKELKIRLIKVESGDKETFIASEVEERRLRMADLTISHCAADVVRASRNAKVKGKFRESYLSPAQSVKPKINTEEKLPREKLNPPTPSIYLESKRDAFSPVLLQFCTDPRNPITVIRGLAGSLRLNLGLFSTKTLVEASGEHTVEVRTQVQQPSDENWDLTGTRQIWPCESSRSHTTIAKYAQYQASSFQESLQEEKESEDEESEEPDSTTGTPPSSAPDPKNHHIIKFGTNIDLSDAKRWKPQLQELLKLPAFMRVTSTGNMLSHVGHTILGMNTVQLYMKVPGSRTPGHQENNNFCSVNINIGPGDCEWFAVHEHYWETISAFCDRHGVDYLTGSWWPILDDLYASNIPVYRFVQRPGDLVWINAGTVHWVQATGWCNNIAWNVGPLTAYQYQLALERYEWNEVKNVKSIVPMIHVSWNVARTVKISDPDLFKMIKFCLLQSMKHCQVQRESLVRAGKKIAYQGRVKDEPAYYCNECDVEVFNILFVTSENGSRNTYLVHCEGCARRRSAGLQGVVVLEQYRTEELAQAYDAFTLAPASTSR

Row | Compound | EC50 (U2OS; 5 h treatment, MSD assay) | EC50 (U2OS; 5 h) | IC50 (FBXL11 (KDM2A)) | IC50 (JMJD3 (KDM6B)) | IC50 (JMJD2E (KDM4E)) | IC50 (JARID1C (KDM5C))
1 | O=C(O)CNC(=O)c1c(O)c2ccccc2n(Cc2ccccc2)c1=O [IOX2] | 49.5 µM |  |  |  |  | 
2 | CC(C)(C)OC(=O)c1ccc(-n2[nH]cc(-n3ccnn3)c2=O)nc1 [IOX4, t-Butyl 6-(5-oxo-4-(1H-1,2,3-triazol-1-yl)-2,5-dihydro-1H-pyrazol-1-yl)nicotinate] |  | 5.6 µM | 20 µM | 1.4 µM | > 20 µM | > 100 µM
3 | O=C(O)c1ccc(-n2[nH]cc(-n3ccnn3)c2=O)nc1 [compound 1, 6-(5-oxo-4-(1H-1,2,3-triazol-1-yl)-2,5-dihydro-1H-pyrazol-1-yl)pyridine-3-carbocylic acid hydrochloride] |  |  | 20 µM | > 20 µM | > 20 µM | > 100 µM
